One data set has as its system NMUR1 and NMUR2. Put plainly: NMU receptor subtype selectivity (EC50 ratios human NMUR2/human NMUR1). It is filed as cell-based. Conditions: NMUR1 vs NMUR2. As for the experimental part:
The present invention provides neuromedin U receptor agonist. The neuromedin U receptor agonist described herein act at NMU receptors, bind the NMU receptors, and stimulate NMU receptor activity. In one aspect, the neuromedin U receptor agonists are specific for one receptor subtype, wherein such specificity is defined as having an IC50 values that is less than about 200 nM in the corresponding NMUR1 or NMUR2 receptor binding assay. Selectivity is based upon functional activity or EC50 ratios at human NMUR2/human NMUR1 for NMUR1-selective peptides and at human NMUR1/human NMUR2 for NMUR2-selective peptides. Further, the selective neuromedin U receptor agonists described herein range from about 21 to 909-fold selective for NMUR1 and from about 2 to 200-fold selective for NMUR2. In another aspect, the neuromedin U receptor agonists are capable of binding and stimulating both the NMUR1 and NMUR2 receptors and have been derivatized to enable the neuromedin U receptor agonists to cross the blood-brain bather and interact with NMU receptors in the brain. The neuromedin U receptor agonists can be used therapeutically and as research tools.

The next data set deals with diet-induced obese mice. Nature of the data set: Feeding study in diet-induced obese mice (food intake, body weight). It is filed as in vivo. An excerpt: NMUR1 knockout (Nmur1−/−) mice were generated using standard homologous recombination techniques. Nmur1 mice were subsequently transferred to Taconic Farms where they were either maintained on a 75% C57BL/6×25% 129S6/SvEv mixed genetic background or backcrossed six generations to C57BL/6. NMUR2 knockout (Nmur2−/−) mice were licensed from Deltagen Inc., San Mateo, Calif. and subsequently transferred to Taconic Farms where they were either maintained on a 75% C57BL/6×25% 129/OlaHsd mixed genetic background or backcrossed for seven generations to C57BL/6. NMUR1 and NMUR2 double knockout (Nmur1&2−/−) mice were generated by crossing N6 Nmur1−/− mice to N7 Nmur2−/− mice. Mice were individually housed in Tecniplast cages in a conventional SPF facility. Mice were initially maintained on a regular chow diet and then early in their life were switched to a high fat diet (D12492: 60% kcal from fat; Research Diets, Inc., New Brunswick, N.J.) with ad libitum access to water in a 12-hour light/12-hour dark cycle.
Ad libitum fed male diet-induced obese mice were weighed and dosed either i.p. or s.c. about 30 minutes prior to the onset of the dark phase of the light cycle and provided with a preweighed aliquot of high fat diet D12492 which was then weighed 2 hours and 18 hours (day 1), 42 hours (day 2), 66 hours (day 3), and 90 hours (day 4) after the onset of the initial dark phase. Mice were weighed at the 18, 42, 66 and 90 hour time points.

The target in another data set is T1, rat NMUR1-TTG (Rattus norvegicus, UniProt Q9JJI5).
T1 sequence (Q9JJI5 1-425): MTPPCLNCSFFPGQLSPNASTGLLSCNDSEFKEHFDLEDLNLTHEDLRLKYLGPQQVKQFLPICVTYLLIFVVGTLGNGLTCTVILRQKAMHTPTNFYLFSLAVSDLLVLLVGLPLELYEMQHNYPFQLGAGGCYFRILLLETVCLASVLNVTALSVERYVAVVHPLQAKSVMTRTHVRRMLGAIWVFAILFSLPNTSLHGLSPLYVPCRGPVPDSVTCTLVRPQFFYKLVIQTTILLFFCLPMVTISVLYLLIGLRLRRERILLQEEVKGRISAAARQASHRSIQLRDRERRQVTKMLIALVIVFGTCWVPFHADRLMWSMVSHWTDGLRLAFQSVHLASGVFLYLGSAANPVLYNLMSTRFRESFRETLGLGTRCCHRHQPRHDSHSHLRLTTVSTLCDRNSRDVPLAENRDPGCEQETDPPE
Nature of the data set: FLIPR calcium mobilization assay, rat NMUR1-TTG. The settings on record: for EC50: FLIPR. It is filed as cell-based. Set-up: expressed in transfected cells; host or cells: FLP-In CHO or HEK-293 FLP-In cells (pcDNA5). The text has this: Human, mouse or rat cDNAs encoding NMUR1 or NMUR2 (as described in Howard et al. Nature 406: 70-74 (2000) were subcloned in pcDNA5 (Invitrogen) and transfected into FLP-In CHO cells and HEK-293 FLP-In cells purchased from Invitrogen (Carlsbad, Calif.) using lipofectamine (Invitrogen). The Flp-In system allows integration and expression of a particular gene of interest at a specific genomic location utilizing the Flp recombinase from yeast. The transfected cells were selected by growth in medium containing 200 μg/mL hygromycin (Invitrogen). Populations were frozen at early passage numbers, and these stocks were used for further studies. Stable clones that expressed the mRNAs were identified functionally by FLIPR as well as by RT-PCR. […] Two different rodent NMUR1 cell lines were thus generated: one with the codon as predicted from the genomic databases and another cell line with an engineered methionine (ATG) as the start codon. Additionally, stable cell lines expressing the human receptors were generated in HEK-293/aeq17 cells which stably express the aequorin gene under the CMV promoter. The human NMUR2 cDNA was cloned into pcDNA3.1 and human NMUR1 was subcloned into pIRES-puro (Clontech, Mountain View, Calif.), after transfection cells were selected in media containing G418 and either hygromycin (NMUR2) or puromycin (NMUR1).
The NMU receptors signal primarily through Gαq/11 proteins; therefore calcium mobilization assays can be utilized for functional activity.
Stable cell lines expressing human and or rodent NMUR1 or human NMUR2 receptors were plated at a density of 12,000 cells per well overnight on poly-lysine coated 384-well black-walled plates. The following day, the media was removed from the plates and the cells were subsequently loaded with Fluo-3 (Molecular Probes), a calcium sensitive dye, diluted in FLIPR buffer (1× Hank's buffered saline containing 20 mM HEPES, 0.1% BSA, 2.5 mM probenecid (Sigma) and 1.6 mM TR40). All reagents are from Invitrogen unless otherwise noted. Peptide stocks were resuspended in DMSO at a stock concentration of 2 mM and diluted in FLIPR buffer on the day of the experiment to a 4 μM working stock solution.
After a 90 minute incubation at room-temperature, cell plates were loaded onto a FLIPR (Molecular Devices) to monitor cellular fluorescence (excitation=488 nm; emission=540 nm) before and after compound/peptide addition. Eight to twelve point dose responses were tested on NMUR-expressing cell lines using FLIPR with 1 μM peptide as the highest dose. The response after peptide addition was taken as the maximum fluorescence units minus the fluorescence immediately prior to stimulation for each well. EC50 values were calculated using GraphPad Prism (San Diego, Calif.) software.
In vitro responses of Neuromedin U receptor agonists (NMU1 to NMU25) in the FLIPR assay for human (Table 3), mouse (Table 4) and rat (Table 5) NMUR1 and NMUR2. EC50s are reported in nM values. Percent activity refers to the maximum response at 1 μM compared to the hNMU-25 response at the same concentration. NT=not tested.
In general terms: Calcium assays in cells follow changes in intracellular calcium, usually with a dye or a luminescent sensor.

Where [1] appears, read: acute peripheral administration, wild-type mice.
The mark [2] stands for this setting: functional, rat R1-TTG, relative to native hNMU responses.
The mark [3] stands for this setting: maximum response at 1 μM compared to hNMU-25, rat NMUR1-TTG.

Non-standard residues stand in square brackets, D forms with d. Residues, ends and D or L forms follow the SMILES beside them. No end group written: not given here. *: point of attachment. Succinimide(1-Et,3-yl) = CCN1C(=O)CC(*)C1=O; hArg = N=C(N)NCCCC[C@H](N)C(=O)O

On to `CC(C)C[C@H](NC(=O)[C@H](Cc1c[nH]c2ccccc12)NC(=O)[C@H](Cc1ccccc1)NC(=O)CNC(=O)[C@H](CCCNC(=N)N)NC(=O)[C@H](CO)NC(=O)[C@H](CCC(N)=O)NC(=O)[C@H](CO)NC(=O)[C@H](C)NC(=O)[C@H](Cc1ccccc1)NC(=O)[C@@H]1CCCN1C(=O)[C@H](CO)NC(=O)[C@H](CCC(N)=O)NC(=O)[C@H](Cc1ccccc1)NC(=O)[C@H](CCC(=O)O)NC(=O)[C@H](CCC(=O)O)NC(=O)[C@H](CC(=O)O)NC(=O)[C@@H](NC(=O)[C@H](CCCNC(=N)N)NC(=O)[C@@H](N)Cc1ccccc1)C(C)C)C(=O)N[C@@H](Cc1ccccc1)C(=O)N[C@@H](CCCNC(=N)N)C(=O)N[C@@H](C)C(=O)N[C@@H](CCCCNC(=N)N)C(=O)N[C@@H](CC(N)=O)C(N)=O` [Agonist P] (H-FRVDEEFQSPFASQSRGFWLFRA[hArg]N-NH2; N-terminus assumed), for which the receptor subtype specificity result in the data set on NMUR1 and NMUR2 is “bispecific”.
`CCN1C(=O)CC(SC[C@H](NC(C)=O)C(=O)N[C@@H](Cc2ccccc2)C(=O)N[C@@H](CCCNC(=N)N)C(=O)N[C@H](C(=O)N[C@@H](CC(=O)O)C(=O)N[C@@H](CCC(=O)O)C(=O)N[C@@H](CCC(=O)O)C(=O)N[C@@H](Cc2ccccc2)C(=O)N[C@@H](CCC(N)=O)C(=O)N[C@@H](CO)C(=O)N2CCC[C@H]2C(=O)N[C@@H](Cc2ccccc2)C(=O)N[C@@H](C)C(=O)N[C@@H](CO)C(=O)N[C@@H](CCC(N)=O)C(=O)N[C@@H](CO)C(=O)N[C@@H](CCCNC(=N)N)C(=O)NCC(=O)N[C@@H](Cc2ccc(O)cc2)C(=O)N[C@@H](Cc2ccccc2)C(=O)N[C@H](C)C(=O)N[C@@H](Cc2c[nH]c3ccccc23)C(=O)N[C@@H](CCCNC(=N)N)C(=O)N2CCC[C@H]2C(=O)N[C@@H](CCCNC(=N)N)C(=O)N[C@@H](CC(N)=O)C(N)=O)C(C)C)C1=O` (some centres unmarked) [NMU13] (Ac-C(Succinimide(1-Et,3-yl))FRVDEEFQSPFASQSRGYF[dA]WRPRN-NH2): in the data set with diet-induced obese mice (setting [1]), the food intake result is “significantly reduced food intake”. In addition, the “% Activity” value on rat NMUR1-TTG (setting [2]) worked out at 94%; on rat NMUR1-TTG (setting [3]) it was 94.6%.
Turning to “Ac-C2FQSPFASQSRGYFLFRPRN-CONH2 ({Ac-C(PEG 40 kDa)}-FQSPFASQSRGYFLFRPRN-NH2; not fully specified; printed as Ac-C2FQSPFASQSRGYFLFRPRN-CONH2) [NMU20, C2 = Cys(PEG)240 kDa]”, the “extension of serum half-life by PEGylation” value in the data set with diet-induced obese mice is reported as “three days”. Moreover, the “Body weight (BW) change (in grams) {relative to vehicle} Day 1” value in the data set with diet-induced obese mice (10 mg/kg, Day 1) was −2.2 grams. For the same molecule, the “% Food intake (FI) reductions Day 1” value in the data set with diet-induced obese mice (10 mg/kg, Day 1, based on vehicle responses) turned out to be 67%. Also, in the data set with diet-induced obese mice (10 mg/kg, Day 2), the “Body weight (BW) change (in grams) {relative to vehicle} Day 2” value is on record as −1.1 grams. The “% Food intake (FI) reductions Day 2” value with diet-induced obese mice (10 mg/kg, Day 2, based on vehicle responses) is 65%. Moreover, the “Body weight (BW) change (in grams) {relative to vehicle} Day 3” value with diet-induced obese mice (10 mg/kg, Day 3) was “+0.3 grams”. Besides, in the data set on diet-induced obese mice (10 mg/kg, Day 3, based on vehicle responses), the “% Food intake (FI) reductions Day 3” value came to 23%. Moreover, the concentration for a half-maximal effect (EC50) with rat NMUR1-TTG (rat NMUR1-TTG) was found to be 24.4 nM. Besides, the “% Activity” value with rat NMUR1-TTG (setting [3]) was determined as 93.8%.
Regarding FALFRPRN-NH2 [Agonist N], the receptor subtype specificity entry with NMUR1 and NMUR2 is “bispecific”.
`CCN1C(=O)CC(SC[C@H](NC(C)=O)C(=O)N[C@@H](Cc2ccccc2)C(=O)N[C@@H](CCC(N)=O)C(=O)N[C@@H](CO)C(=O)N2CCC[C@H]2C(=O)N[C@@H](Cc2ccccc2)C(=O)N[C@@H](C)C(=O)N[C@@H](CO)C(=O)N[C@@H](CCC(N)=O)C(=O)N[C@@H](CO)C(=O)N[C@@H](CCCNC(=N)N)C(=O)NCC(=O)N[C@@H](Cc2ccc(O)cc2)C(=O)N[C@@H](Cc2ccccc2)C(=O)N[C@@H](CC(C)C)C(=O)N[C@@H](Cc2ccccc2)C(=O)N[C@@H](CCCNC(=N)N)C(=O)N2CCC[C@H]2C(=O)N[C@@H](CCCNC(=N)N)C(=O)N[C@@H](CC(N)=O)C(N)=O)C1=O` (some centres unmarked) [NMU19] (Ac-C(Succinimide(1-Et,3-yl))FQSPFASQSRGYFLFRPRN-NH2): the “% Activity” value on rat NMUR1-TTG (setting [3]) is given as 100%.
As to “Ac-C4FRVDEEFQSPFASQSRGYFLFRPRN-CONH2 ({Ac-C(PEG 20 kDa)}-FRVDEEFQSPFASQSRGYFLFRPRN-NH2) [NMU21, C4 = Cys(PEG)20 kDa]”, in the data set with rat NMUR1-TTG (rat NMUR1-TTG), the 50% effective concentration (EC50) amounted to 220 nM. Further, the “% Activity” value in the data set with rat NMUR1-TTG (setting [3]) was determined as 77.5%.
On to `CC(C)C[C@@H](NC(=O)[C@H](Cc1ccccc1)NC(=O)[C@H](Cc1ccc(O)cc1)NC(=O)CNC(=O)[C@H](CCCNC(=N)N)NC(=O)[C@H](CO)NC(=O)[C@H](CCC(N)=O)NC(=O)[C@H](CO)NC(=O)[C@H](C)NC(=O)[C@H](Cc1ccccc1)NC(=O)[C@@H]1CCCN1C(=O)[C@H](CO)NC(=O)[C@H](CCC(N)=O)NC(=O)[C@H](Cc1ccccc1)NC(=O)[C@H](CCC(=O)O)NC(=O)[C@H](CCC(=O)O)NC(=O)[C@H](CC(=O)O)NC(=O)[C@@H](NC(=O)[C@H](CCCNC(=N)N)NC(=O)[C@@H](N)Cc1ccccc1)C(C)C)C(=O)N[C@@H](Cc1c[nH]c2ccccc12)C(=O)N[C@@H](CCCNC(=N)N)C(=O)N1CCC[C@H]1C(=O)N[C@@H](CCCNC(=N)N)C(=O)N[C@@H](CC(N)=O)C(N)=O` [Agonist H] (H-FRVDEEFQSPFASQSRGYF[dL]WRPRN-NH2; N-terminus assumed), for which the food intake entry is on record as “significantly reduced food intake” in the data set with diet-induced obese mice (setting [1]); “reduces food intake” with diet-induced obese mice (ip 3.25 mmoles/kg, diet-induced obese Nmur1+/+ and Nmur1−/− mice, about 2 and 18 hours). For the same molecule, the “% Activity” value at rat NMUR1-TTG (setting [2]) is given as 91%.

In general, EC50 refers to the concentration needed to bring the measured effect to its halfway point.

The values are drawn from patent US20100075907A1, “NEUROMEDIN U RECEPTOR AGONISTS AND USES THEREOF” (priority 2006, published 2010).
